Source: ChEMBL document CHEMBL1201862, “PubChem BioAssay data set” (2004)
Activity calls are given as the source filed them.

Legend:
[1] = biological target: FAD-linked sulfhydryl oxidase ALR (Homo sapiens, UniProt P55789); test: ALR-catalysed DTT oxidation blockers – biochemical, H2O2 detection, luminescence, cherry-pick, dose response (AID 493248)
[2] = Luminescence Cell-Based Dose Retest to Confirm Inhibitors of Cancer Stem Cells. [Related pubchem assays (depositor defined):AID2717, AID2721]; type: functional; conditions: Homo sapiens
INS1 = test: INS-1E survival protection against cytokine death – cell-based, luminescence, retest, dose response (AID 449756); type: functional; conditions: Rattus norvegicus;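 also: cell death triggered by IL-1 beta plus TNF-alpha plus IFN-gamma mixture; protective hits raise ATP signal compared with cytokine alone wells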
Vero = test: host cell viability loss, Vero E6 – synthesized analogs, cytotoxicity control for West Nile virus antiviral project, SAR follow-up (AID 2244); type: functional; conditions: Chlorocebus sabaeus
[3] = biological target: Glucose-6-phosphate 1-dehydrogenase (Homo sapiens, UniProt P11413); test: inhibition of Homo sapiens G6PD, dose series – biochemical, fluorescence, selectivity assay for P. falciparum G6PD inhibitor project, dose response (AID 504792); type: functional
Hexokinase HKDC1 = biological target: T1, Hexokinase HKDC1 (Homo sapiens, UniProt Q2TB90); test: inhibition of HKDC1 glucose phosphorylation – biochemical, W721R variant, dose response (AID 504729); type: functional
T1 sequence (Q2TB90 whole entry): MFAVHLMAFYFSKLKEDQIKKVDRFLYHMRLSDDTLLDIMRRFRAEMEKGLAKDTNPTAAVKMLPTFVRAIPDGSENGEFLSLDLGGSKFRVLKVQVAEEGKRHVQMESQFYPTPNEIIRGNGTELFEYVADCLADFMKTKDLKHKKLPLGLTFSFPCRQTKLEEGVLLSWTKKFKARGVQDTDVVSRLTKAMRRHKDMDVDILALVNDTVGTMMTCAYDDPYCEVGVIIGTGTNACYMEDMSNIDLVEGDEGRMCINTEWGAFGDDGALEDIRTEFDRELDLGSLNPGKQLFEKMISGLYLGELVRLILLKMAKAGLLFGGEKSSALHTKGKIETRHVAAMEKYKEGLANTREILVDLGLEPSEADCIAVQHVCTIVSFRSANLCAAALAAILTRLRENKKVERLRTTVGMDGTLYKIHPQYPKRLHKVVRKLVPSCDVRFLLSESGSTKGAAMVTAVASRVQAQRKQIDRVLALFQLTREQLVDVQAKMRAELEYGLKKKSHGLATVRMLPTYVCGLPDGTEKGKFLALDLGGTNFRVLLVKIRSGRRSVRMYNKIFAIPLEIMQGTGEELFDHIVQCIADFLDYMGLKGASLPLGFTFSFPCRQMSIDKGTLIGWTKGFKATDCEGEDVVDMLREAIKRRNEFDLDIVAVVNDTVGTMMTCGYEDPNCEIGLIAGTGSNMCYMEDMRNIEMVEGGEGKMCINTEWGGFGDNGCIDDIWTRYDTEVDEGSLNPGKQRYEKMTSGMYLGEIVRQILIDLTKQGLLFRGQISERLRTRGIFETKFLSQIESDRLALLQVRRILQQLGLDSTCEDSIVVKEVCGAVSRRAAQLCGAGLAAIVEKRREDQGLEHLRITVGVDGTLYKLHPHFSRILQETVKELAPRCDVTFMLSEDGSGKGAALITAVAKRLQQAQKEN

Aminopeptidase N = biological target: T2, Aminopeptidase N (Plasmodium falciparum FcB1/Columbia, UniProt O96935); test: malaria alanyl aminopeptidase activity blockers – biochemical, fluorogenic H-Leu-NHMec substrate, 1536-well (AID 1445); parameters: species or system Plasmodium falciparum 3D7, 3D7
T2 sequence (O96935 whole entry): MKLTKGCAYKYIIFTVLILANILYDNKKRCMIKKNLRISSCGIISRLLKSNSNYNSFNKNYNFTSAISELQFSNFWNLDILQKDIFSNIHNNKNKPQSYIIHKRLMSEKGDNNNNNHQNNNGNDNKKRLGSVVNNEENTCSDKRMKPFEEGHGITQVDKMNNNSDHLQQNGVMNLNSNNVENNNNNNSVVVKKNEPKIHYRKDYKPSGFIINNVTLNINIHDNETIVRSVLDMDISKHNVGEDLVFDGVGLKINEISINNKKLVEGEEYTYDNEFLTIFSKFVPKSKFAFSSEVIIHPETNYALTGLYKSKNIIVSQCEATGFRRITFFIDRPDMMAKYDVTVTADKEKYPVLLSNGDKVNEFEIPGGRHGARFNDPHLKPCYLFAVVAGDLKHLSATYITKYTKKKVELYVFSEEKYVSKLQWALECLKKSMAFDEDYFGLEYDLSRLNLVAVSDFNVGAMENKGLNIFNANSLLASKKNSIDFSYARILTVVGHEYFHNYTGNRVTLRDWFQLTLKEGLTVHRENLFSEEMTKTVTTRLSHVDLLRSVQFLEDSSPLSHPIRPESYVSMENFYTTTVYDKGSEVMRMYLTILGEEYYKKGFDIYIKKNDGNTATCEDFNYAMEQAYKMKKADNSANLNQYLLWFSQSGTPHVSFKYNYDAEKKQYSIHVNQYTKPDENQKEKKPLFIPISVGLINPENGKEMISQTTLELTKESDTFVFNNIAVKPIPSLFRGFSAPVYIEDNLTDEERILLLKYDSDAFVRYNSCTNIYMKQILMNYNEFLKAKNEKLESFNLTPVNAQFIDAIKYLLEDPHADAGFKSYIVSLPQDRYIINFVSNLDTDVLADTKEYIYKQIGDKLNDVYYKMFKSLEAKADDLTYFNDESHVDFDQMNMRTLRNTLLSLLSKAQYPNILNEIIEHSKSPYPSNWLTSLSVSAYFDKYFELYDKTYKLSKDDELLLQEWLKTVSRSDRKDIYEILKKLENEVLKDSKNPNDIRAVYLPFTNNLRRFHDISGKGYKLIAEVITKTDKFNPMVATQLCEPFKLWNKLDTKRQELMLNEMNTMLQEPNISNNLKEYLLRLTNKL

HeLa = test: viability loss in HeLa cells – cell-based, 24 h, cherry-picked samples, cytotoxicity control, dose response (AID 504726); type: functional; conditions: Homo sapiens;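 also: potency for cytotoxicity as loss of luminescence signal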
cells [4] = type: functional, cell-based
Albumin = Albumin (Bos taurus, UniProt P02769); test: Counterscreen for inhibitors of T-cell receptor (TCR)-CD3 interaction: Fluorescence-based biochemical high throughput dose response assay to identify inhibitors of T-cell receptor (TCR)-CD3 interaction using a TAMRA-labeled BSA probe.; type: functional
[5] = biological target: 26S proteasome non-ATPase regulatory subunit 14 (Homo sapiens, UniProt O00487); test: inhibition of proteasome subunit RPN11 – biochemical, fluorescence polarization, uHTS hits, confirmation (AID 602368); type: functional
[6] = HepG2 cell cytotoxicity, dose response, cytotoxicity control for non-replicating M. tuberculosis project (AID 489018); type: functional; conditions: Mycobacterium tuberculosis
[7] = fluconazole-exposed Candida albicans growth modulators – fluorescence, retest, confirmation (AID 2467); type: functional, cell-based
[8] = biological target: 72 kDa type IV collagenase (Homo sapiens, UniProt P08253); test: Dose Response validation of uHTS RPN11 inhibitor hits using a MMP-2 Fluorescence assay.; type: functional
cells [9] = type: functional, cell-based; remark: listed apart in the source
Prothrombin = Prothrombin (Bos taurus, UniProt P00735); test: thrombin protease inhibitors – biochemical, fluorescence polarization, uHTS hits, dose response (AID 602369); type: functional
[10] = Vero E6 cell cytotoxicity, dose response, cytotoxicity control for non-replicating M. tuberculosis project, secondary assay (AID 492998); type: functional, VeroE6; conditions: Vero C1008
[11] = NIH-3T3 fibroblast cytotoxicity, dose response, cytotoxicity control, cell-based, fluorescence, Alamar Blue, secondary assay (AID 2327); type: functional;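 also: NIH-3T3 mouse fibroblasts cultured with fluconazole at 8 µg/mL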
[12] = THP-1 cell cytotoxicity, dose response, cytotoxicity control for non-replicating M. tuberculosis project (AID 489025); type: functional
Nonstructural protein 1 = Nonstructural protein 1 (Influenza A virus, UniProt Q194T2); type: functional, Influenza A virus (A/California/07/2009(H1N1))
[13] = biological target: T3, Short transient receptor potential channel 4 (Mus musculus, UniProt Q9QUQ5); test: block of DAMGO-driven TRPC4 calcium entry – cell-based, HEK293 TRPC4/mu-opioid, Fluo-4 calcium, dose response (AID 434942); type: functional;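 also: potency of inhibitors blocking the TRPC4 calcium response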
T3 sequence (Q9QUQ5 whole entry): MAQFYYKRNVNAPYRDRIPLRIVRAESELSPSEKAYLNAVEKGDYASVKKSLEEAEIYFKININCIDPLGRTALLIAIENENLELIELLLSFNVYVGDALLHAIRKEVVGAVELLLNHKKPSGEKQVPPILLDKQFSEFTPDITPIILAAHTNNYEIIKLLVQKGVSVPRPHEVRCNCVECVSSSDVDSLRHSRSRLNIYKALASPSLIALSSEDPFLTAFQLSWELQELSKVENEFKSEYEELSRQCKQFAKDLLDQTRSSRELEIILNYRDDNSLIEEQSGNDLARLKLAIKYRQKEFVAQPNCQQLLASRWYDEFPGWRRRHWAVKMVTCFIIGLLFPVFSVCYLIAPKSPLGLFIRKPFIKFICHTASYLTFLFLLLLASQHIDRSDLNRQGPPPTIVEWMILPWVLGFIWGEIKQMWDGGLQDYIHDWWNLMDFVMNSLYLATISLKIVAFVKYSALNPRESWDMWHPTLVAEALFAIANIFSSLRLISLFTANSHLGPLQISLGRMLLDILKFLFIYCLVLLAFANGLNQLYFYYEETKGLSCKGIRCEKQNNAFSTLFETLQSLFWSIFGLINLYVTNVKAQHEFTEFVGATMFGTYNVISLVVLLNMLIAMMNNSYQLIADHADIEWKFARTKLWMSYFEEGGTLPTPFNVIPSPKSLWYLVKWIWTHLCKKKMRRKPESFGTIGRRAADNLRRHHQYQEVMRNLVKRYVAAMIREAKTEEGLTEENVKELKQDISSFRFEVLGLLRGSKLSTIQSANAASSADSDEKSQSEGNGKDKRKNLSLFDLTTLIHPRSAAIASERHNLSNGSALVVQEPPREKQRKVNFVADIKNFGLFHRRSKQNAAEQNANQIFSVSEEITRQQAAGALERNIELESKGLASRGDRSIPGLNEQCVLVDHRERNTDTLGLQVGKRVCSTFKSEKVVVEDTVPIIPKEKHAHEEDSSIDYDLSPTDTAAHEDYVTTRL

Trypsin = Trypsin (Sus scrofa, UniProt P00761); test: trypsin protease activity blockade – biochemical, quenched peptide fluorescence, cherry-pick, selectivity assay for Rce1 protease inhibitor project, dose response (AID 488789)
CAAX prenyl protease 2 = biological target: T4, CAAX prenyl protease 2 (Homo sapiens, UniProt Q9Y256); test: inhibition of Ras-converting CAAX protease Rce1 – biochemical, yeast membranes, quenched-peptide fluorescence, cherry-pick, dose response (AID 588849)
T4 sequence (Q9Y256 whole entry): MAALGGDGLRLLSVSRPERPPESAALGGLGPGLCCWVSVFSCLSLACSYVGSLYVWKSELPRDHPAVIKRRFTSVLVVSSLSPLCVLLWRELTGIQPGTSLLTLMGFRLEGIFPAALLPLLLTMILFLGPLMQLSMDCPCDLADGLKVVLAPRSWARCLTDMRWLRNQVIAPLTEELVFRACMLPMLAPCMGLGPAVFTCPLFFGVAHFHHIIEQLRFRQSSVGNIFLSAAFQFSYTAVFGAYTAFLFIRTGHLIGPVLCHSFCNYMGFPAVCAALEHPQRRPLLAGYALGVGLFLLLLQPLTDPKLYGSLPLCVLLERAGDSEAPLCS

FAD-linked sulfhydryl oxidase ALR, sequence (P55789 whole entry): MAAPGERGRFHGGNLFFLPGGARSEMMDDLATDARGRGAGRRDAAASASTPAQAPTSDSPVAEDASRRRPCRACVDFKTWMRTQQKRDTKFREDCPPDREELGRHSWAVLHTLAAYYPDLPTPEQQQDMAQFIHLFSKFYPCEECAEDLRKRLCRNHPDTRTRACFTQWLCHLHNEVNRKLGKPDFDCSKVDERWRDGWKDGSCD
72 kDa type IV collagenase, sequence (P08253 whole entry): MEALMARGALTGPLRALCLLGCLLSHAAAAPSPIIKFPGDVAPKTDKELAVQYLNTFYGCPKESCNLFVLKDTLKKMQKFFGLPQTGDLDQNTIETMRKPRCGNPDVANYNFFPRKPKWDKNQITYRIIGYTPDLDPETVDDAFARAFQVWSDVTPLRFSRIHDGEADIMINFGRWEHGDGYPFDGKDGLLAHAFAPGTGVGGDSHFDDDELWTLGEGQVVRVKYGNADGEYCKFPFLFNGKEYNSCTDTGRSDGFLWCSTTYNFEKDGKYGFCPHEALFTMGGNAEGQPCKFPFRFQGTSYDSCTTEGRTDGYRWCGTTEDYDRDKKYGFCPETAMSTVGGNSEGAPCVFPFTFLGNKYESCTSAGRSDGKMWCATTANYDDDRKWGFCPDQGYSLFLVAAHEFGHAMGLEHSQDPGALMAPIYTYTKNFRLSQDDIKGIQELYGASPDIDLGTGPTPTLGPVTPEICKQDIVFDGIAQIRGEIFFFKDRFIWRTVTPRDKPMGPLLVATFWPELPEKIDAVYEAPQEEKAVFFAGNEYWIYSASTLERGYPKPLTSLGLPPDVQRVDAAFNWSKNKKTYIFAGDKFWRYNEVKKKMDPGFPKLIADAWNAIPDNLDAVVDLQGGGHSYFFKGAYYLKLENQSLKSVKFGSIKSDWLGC
26S proteasome non-ATPase regulatory subunit 14, sequence (O00487 whole entry): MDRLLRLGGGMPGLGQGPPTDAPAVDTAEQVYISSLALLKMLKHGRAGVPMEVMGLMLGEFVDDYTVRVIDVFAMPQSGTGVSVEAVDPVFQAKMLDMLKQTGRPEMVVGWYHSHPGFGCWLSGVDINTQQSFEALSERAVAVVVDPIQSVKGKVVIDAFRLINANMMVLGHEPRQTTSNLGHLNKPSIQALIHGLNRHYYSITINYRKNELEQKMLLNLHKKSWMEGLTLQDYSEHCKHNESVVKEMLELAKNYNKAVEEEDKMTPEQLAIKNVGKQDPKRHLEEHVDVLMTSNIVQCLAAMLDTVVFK
Albumin, sequence (P02769 whole entry): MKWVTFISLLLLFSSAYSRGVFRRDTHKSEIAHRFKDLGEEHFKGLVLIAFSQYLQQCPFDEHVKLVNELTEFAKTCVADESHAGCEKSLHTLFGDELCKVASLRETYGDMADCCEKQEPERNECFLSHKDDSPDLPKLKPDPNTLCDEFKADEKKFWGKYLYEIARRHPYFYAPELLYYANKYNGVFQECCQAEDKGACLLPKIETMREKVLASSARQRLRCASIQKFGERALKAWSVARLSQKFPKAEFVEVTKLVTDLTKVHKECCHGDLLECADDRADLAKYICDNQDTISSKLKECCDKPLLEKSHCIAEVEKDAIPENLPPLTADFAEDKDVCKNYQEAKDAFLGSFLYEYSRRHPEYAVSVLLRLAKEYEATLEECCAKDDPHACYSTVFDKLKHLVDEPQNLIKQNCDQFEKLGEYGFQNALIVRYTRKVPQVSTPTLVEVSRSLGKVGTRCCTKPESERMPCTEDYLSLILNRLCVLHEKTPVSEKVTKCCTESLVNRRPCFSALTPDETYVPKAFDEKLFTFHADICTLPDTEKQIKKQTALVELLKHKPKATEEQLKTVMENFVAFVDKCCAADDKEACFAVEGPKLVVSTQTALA
Nonstructural protein 1, sequence (Q194T2 whole entry): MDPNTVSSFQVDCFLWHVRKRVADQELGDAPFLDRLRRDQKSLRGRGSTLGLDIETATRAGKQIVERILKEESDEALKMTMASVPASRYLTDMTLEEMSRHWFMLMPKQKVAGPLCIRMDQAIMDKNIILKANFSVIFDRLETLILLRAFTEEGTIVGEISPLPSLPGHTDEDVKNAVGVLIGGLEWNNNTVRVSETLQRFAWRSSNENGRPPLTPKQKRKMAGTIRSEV
Glucose-6-phosphate 1-dehydrogenase, sequence (P11413 whole entry): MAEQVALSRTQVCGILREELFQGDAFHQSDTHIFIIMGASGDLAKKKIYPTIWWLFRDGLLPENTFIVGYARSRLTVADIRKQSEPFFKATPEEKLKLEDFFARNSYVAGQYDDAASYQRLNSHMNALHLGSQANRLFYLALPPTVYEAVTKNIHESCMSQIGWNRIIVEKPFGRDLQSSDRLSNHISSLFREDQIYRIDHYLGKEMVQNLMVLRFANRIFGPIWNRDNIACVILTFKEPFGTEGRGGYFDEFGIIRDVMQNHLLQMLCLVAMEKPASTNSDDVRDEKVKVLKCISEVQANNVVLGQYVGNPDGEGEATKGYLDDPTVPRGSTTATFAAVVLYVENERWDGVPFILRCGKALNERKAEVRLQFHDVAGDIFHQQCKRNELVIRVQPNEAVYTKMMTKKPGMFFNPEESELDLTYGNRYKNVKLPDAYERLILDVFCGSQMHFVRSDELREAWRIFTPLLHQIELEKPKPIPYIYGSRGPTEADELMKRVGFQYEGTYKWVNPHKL
Trypsin, sequence (P00761 whole entry): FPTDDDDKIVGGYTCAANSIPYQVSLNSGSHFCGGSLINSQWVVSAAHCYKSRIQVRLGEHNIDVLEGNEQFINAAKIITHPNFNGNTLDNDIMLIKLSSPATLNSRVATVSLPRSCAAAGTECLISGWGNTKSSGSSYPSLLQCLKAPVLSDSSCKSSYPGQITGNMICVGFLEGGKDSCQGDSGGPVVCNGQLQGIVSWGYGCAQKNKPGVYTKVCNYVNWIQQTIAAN

Cc1ccc(NNC(=O)c2ccno2)cc1Cl
AC50 [1]: 0.223 µM (active) | AC50 [2]: 2.34 µM (active) | AC50 (INS1): 7.1 µM (active)

O=C(Nc1nc(-c2ccc(Cl)cc2)cs1)c1cccc(Cl)c1
CC50 (Vero): < 0.08 µM (active)

COc1cc(/C=C2\SC(c3ccc(C)cc3)=NC2=O)ccc1O
IC50 [3]: > 80 µM (inactive) | IC50 (Hexokinase HKDC1): 38.3 µM (inactive)

COc1ccc(-c2csc(NC(=O)c3ccc(Cl)cc3)n2)cc1
CC50 (Vero): > 40 µM (active)

CC(=O)Nc1cccc(NC(=O)C2CCCN2C(=O)Nc2cccc(F)c2)c1 (stereo not drawn)
IC50 (Aminopeptidase N): 68.9 µM (active)

Cc1ccc2nc(C)cc(N/N=C/c3cccc(O)c3)c2c1
AC50 [1]: 1.02 µM (active)

COc1ccc(/C=N/Nc2ccccn2)cc1OC
AC50 [1]: 0.771 µM (active)

COc1ccc(C2c3ccc(O)cc3Oc3ncn(CCCO)c(=N)c32)cc1OC (stereo not drawn)
AC50 (HeLa): > 350 µM (inactive)

O=C(N/N=C/c1cc(Br)cc(Cl)c1O)c1ccc2c(c1)OCO2
EC50 (cells [4]): 22.1 µM (active) | IC50 (Albumin): > 94.1 µM (inactive) | IC50 [5]: 15.5 µM (active) | CC50 [6]: 16.1 µM (active) | EC50 [7]: 1.03 µM (active) | IC50 [8]: 65.4 µM (active) | EC50 (cells [9]): > 350 µM (not active) | IC50 (Prothrombin): 33.8 µM (active) | CC50 [10]: 7.35 µM (active) | AC50 (INS1): 4.16 µM (active) | EC50 [11]: > 150 µM (inactive) | CC50 [12]: 1.95 µM (active)

Cc1cc(O)nc(NN/C=C2/C(=O)N(c3ccccc3)C(=O)c3ccccc32)n1
IC50 [5]: 18.4 µM (active) | IC50 [8]: > 100 µM (inactive) | IC50 (Prothrombin): 37.2 µM (active) | IC50 (Aminopeptidase N): 47 µM (active) | IC50 (Nonstructural protein 1): 12 µM (active)

COc1ccc(-c2csc(NC(=O)Cc3cccc4ccccc34)c2C(=O)O)cc1
EC50 [13]: 7.5 µM (active) | IC50 (Aminopeptidase N): 42.3 µM (active)

COc1cc(Cn2c(N)c(C(=O)NCc3ccco3)c3nc4ccccc4nc32)cc(OC)c1OC
AC50 (Trypsin): 22.3 µM (active) | AC50 (CAAX prenyl protease 2): 3.86 µM (active)

O=[N+]([O-])c1ccc(NN=Cc2ccc(O)cc2O)nc1
IC50 (Hexokinase HKDC1): 6.23 µM (active)
